ChEMBL document CHEMBL1146712, “Synthesis and biological evaluation of [4-(2-phenylethenesulfonylmethyl)phenyl]-quinazolin-4-yl-amines as orally active anti-cancer agents” (2004)

Assays:
DU-145 = experiment: In vitro inhibition of DU145 (human prostate cancer) cell growth.; assay type: functional
HT-29 = experiment: Concentration required to inhibit growth of human colon (HT-29) cell line; assay type: functional
MCF7 = experiment: Concentration required to inhibit growth of human breast (MCF-7) cell line; assay type: functional
OVCAR-8 = experiment: Concentration required to inhibit growth of human ovarian (OVCAR8) cell line; assay type: functional
PC-3 = experiment: Concentration required to inhibit growth of human prostate (PC3) cell line; assay type: functional
SW-620 = experiment: Concentration required to inhibit growth of human colon (SW620) cell line; assay type: functional
UACC-62 = experiment: Concentration required to inhibit growth of human melanoma (UACC62) cell line; assay type: functional
U-251 = experiment: Concentration required to inhibit growth of human CNS (U251) cell line; assay type: functional
NCI-H522 (Homo sapiens) = experiment: Concentration required to inhibit growth of human lung (H522) cell line
ACHN = experiment: Concentration required to inhibit growth of human renal (ACHN) cell line; assay type: functional
NCI/ADR-RES = experiment: in vitro inhibition of MCF-7/ADR (human breast cancer) cell growth.; assay type: functional
SK-OV-3 = experiment: Concentration required to inhibit growth of human ovarian (SK-OV3) cell line; assay type: functional
Mus musculus [1] = experiment: (§1) Anticancer activity after implantation of HT-29 human adeno carcinoma xenograft in mice at a dose of 300 mg/kg; assay type: functional
Mus musculus [2] = experiment: Anticancer activity after implantation of HT-29 human adeno carcinoma xenograft in mice at a dose of 300 mg/kg; 0/6; assay type: functional
Mus musculus [3] = experiment: as §1; assay type: functional; design: reference not given here

Row | SMILES | GI50 (DU-145) | GI50 (HT-29) | GI50 (MCF7) | GI50 (OVCAR-8) | GI50 (PC-3) | GI50 (SW-620) | GI50 (UACC-62) | GI50 (U-251) | GI50 (NCI-H522 (Homo sapiens)) | GI50 (ACHN) | GI50 (NCI/ADR-RES) | GI50 (SK-OV-3) | inhibition in vivo at 300 mg/kg (Mus musculus [1]) | Mortality (Mus musculus [2]) | Mean body weight (Mus musculus [3])
1 | O=S(=O)(/C=C/c1ccc(O)cc1)Cc1ccc(Nc2ncnc3ccc(Br)cc23)cc1 | 3 µM | 9 µM | 32 µM | > 100 µM | 42 µM | 94 µM | 28 µM | > 100 µM | 27 µM |  |  |  |  |  | 
2 | O=S(=O)(/C=C/c1ccccc1)Cc1ccc(Nc2ncnc3ccccc23)cc1 | 2 µM | > 100 µM | 74 µM | > 100 µM | > 100 µM | > 100 µM | > 100 µM | > 100 µM | > 100 µM | 58 µM | > 100 µM | 5 µM |  |  | 
3 | COc1cc2ncnc(Nc3ccc(CS(=O)(=O)/C=C/c4ccc(Br)cc4)cc3)c2cc1OC |  | 24 µM | 32 µM | 6 µM | 9.5 µM | 5 µM | 63 µM | 11 µM | 8 µM | 4 µM | 72 µM | 50 µM |  |  | 
4 | COc1cc2ncnc(Nc3ccc(CS(=O)(=O)/C=C/c4ccc(F)cc4)cc3)c2cc1OCCN1CCOCC1 |  | 100 µM | 100 µM | 48 µM | 100 µM | 100 µM | 100 µM | 100 µM | 100 µM | 66 µM |  | 36 µM |  |  | 
5 | O=S(=O)(/C=C/c1ccc(C(F)(F)F)cc1F)Cc1ccc(Nc2ncnc3ccc(Br)cc23)cc1 |  | 100 µM | 32 µM | 15 µM | 58 µM | 55 µM | 22 µM | 30 µM | 40 µM | 16 µM | 85 µM | 5 µM |  |  | 
6 | O=S(=O)(/C=C/c1ccc(F)cc1F)Cc1ccc(Nc2ncnc3cc(Cl)ccc23)cc1 | > 100 µM | > 100 µM | > 100 µM | > 100 µM | > 100 µM | > 100 µM | > 100 µM | > 100 µM | > 100 µM | > 100 µM | > 100 µM | > 100 µM |  |  | 
7 | N#Cc1ccc(/C=C/S(=O)(=O)Cc2ccc(Nc3ncnc4ccccc34)cc2)cc1 | > 100 µM | > 100 µM | > 100 µM | > 100 µM | > 100 µM | > 100 µM | > 100 µM | > 100 µM | > 100 µM | > 100 µM | > 100 µM | > 100 µM |  |  | 
8 | O=S(=O)(/C=C/c1ccc(Cl)cc1)Cc1ccc(Nc2ncnc3ccc(Br)cc23)cc1 | 1 µM | > 100 µM | 46 µM | 3 µM | 2 µM | 45 µM | 15 µM | 30 µM | 13 µM |  |  |  |  |  | 
9 | O=S(=O)(/C=C/c1ccc(F)cc1Cl)Cc1ccc(Nc2ncnc3cc(Cl)ccc23)cc1 | 37 µM | > 100 µM | 15 µM | > 100 µM | 73 µM | > 100 µM | 72 µM | 2 µM |  | 17 µM | > 100 µM | > 100 µM |  |  | 
10 | O=S(=O)(/C=C/c1ccc(Cl)c(Cl)c1)Cc1ccc(Nc2ncnc3ccccc23)cc1 |  | 11 µM | 28 µM | 14 µM | 35 µM | 41 µM | 21 µM | 11 µM | 32 µM | 28 µM | 22 µM | 22 µM |  |  | 
11 | O=S(=O)(/C=C/c1ccc(C(F)(F)F)cc1F)Cc1ccc(Nc2ncnc3ccccc23)cc1 |  | 100 µM | 100 µM | 100 µM | 100 µM | 100 µM | 100 µM | 100 µM | 100 µM | 100 µM | 100 µM | 39 µM |  |  | 
12 | O=S(=O)(/C=C/c1ccc(F)cc1)Cc1ccc(Nc2ncnc3ccccc23)cc1 | 0.3 µM | 1 µM | 16 µM | 2 µM | 1 µM | 100 µM | 5 µM | 0.01 µM | 13 µM | 0.01 µM |  | 2 µM | 84% | 0 | 5%
13 | O=S(=O)(/C=C/c1ccc(Br)cc1)Cc1ccc(Nc2ncnc3ccccc23)cc1 | 55 µM | > 100 µM | 91 µM | 38 µM | 42 µM | > 100 µM | > 100 µM | > 100 µM | > 100 µM | 0.2 µM | > 100 µM | 1 µM |  |  | 
14 | O=S(=O)(/C=C/c1ccc(F)cc1F)Cc1ccc(Nc2ncnc3ccccc23)cc1 |  | > 100 µM | > 100 µM | > 100 µM | > 100 µM | 86 µM | > 100 µM | > 100 µM |  | 31 µM | > 100 µM | 69 µM |  |  | 
15 | O=S(=O)(/C=C/c1ccc(O)cc1)Cc1ccc(Nc2ncnc3ccccc23)cc1 | 19 µM | 2 µM | 100 µM | 1 µM | 14 µM | 100 µM | 100 µM | 0.3 µM | 100 µM | 0.02 µM |  | 14 µM |  |  | 
16 | O=S(=O)(/C=C/c1ccc(Cl)cc1)Cc1ccc(Nc2ncnc3ccccc23)cc1 | > 100 µM | 73 µM | 52 µM | > 100 µM | 43 µM | 77 µM | 13 µM | 49 µM | 46 µM | > 100 µM | > 100 µM | 54 µM |  |  | 
17 | O=S(=O)(/C=C/c1ccc(F)cc1F)Cc1ccc(Nc2ncnc3ccc(Br)cc23)cc1 |  | 100 µM | 100 µM | 100 µM | 100 µM | 100 µM | 3 µM | 32 µM | 100 µM | 8 µM | 100 µM | 2 µM |  |  | 
18 | O=S(=O)(/C=C/c1ccc(C(F)(F)F)cc1F)Cc1ccc(Nc2ncnc3cc(Cl)ccc23)cc1 | > 100 µM | > 100 µM | > 100 µM | > 100 µM | > 100 µM | > 100 µM | > 100 µM | > 100 µM | > 100 µM | > 100 µM | > 100 µM | > 100 µM |  |  | 
19 | COc1cc2ncnc(Nc3ccc(CS(=O)(=O)/C=C/c4ccc(Cl)cc4Cl)cc3)c2cc1OCCCN1CCOCC1 | 1.3 µM | 4 µM | 54 µM | 12 µM | 5 µM | 7 µM | 23 µM | 4 µM |  | 3.4 µM | > 100 µM | 2.4 µM |  |  | 
20 | COc1cc2ncnc(Nc3ccc(CS(=O)(=O)/C=C/c4ccc(F)cc4)cc3)c2cc1OCCCN1CCOCC1 | 4 µM | > 100 µM | 3 µM | > 100 µM | 28 µM | > 100 µM | 55 µM | 18 µM | > 100 µM | 0.2 µM | 3 µM | > 100 µM |  |  | 
21 | CC(C)(C)c1cc(/C=C/S(=O)(=O)Cc2ccc(Nc3ncnc4ccccc34)cc2)cc(C(C)(C)C)c1O | 1 µM | 17 µM | 13 µM | 5 µM | 7 µM | 9 µM | 6 µM | 38 µM | 45 µM | > 100 µM | > 100 µM | 3 µM |  |  | 
22 | COc1cc2ncnc(Nc3ccc(CS(=O)(=O)/C=C/c4ccc(F)cc4)cc3)c2cc1OC | > 100 µM | > 100 µM | > 100 µM | > 100 µM | > 100 µM | > 100 µM | > 100 µM | > 100 µM | > 100 µM | > 100 µM | > 100 µM | > 100 µM |  |  | 
23 | O=S(=O)(/C=C/c1ccc(Cl)cc1Cl)Cc1ccc(Nc2ncnc3cc(Cl)ccc23)cc1 |  | 59 µM | 25 µM | > 100 µM | 38 µM | > 100 µM | 32 µM | 53 µM | 76 µM | 8 µM | > 100 µM | 48 µM |  |  | 
24 | O=S(=O)(/C=C/c1ccc(Cl)c(Cl)c1)Cc1ccc(Nc2ncnc3ccc(Br)cc23)cc1 | 17 µM | 27 µM | 14 µM | 0.1 µM | 11 µM | 5 µM | 30 µM | > 100 µM | > 100 µM |  |  |  |  |  | 
25 | O=S(=O)(/C=C/c1ccc(F)cc1Cl)Cc1ccc(Nc2ncnc3ccccc23)cc1 |  | 100 µM | 21 µM | 100 µM | 100 µM | 100 µM | 100 µM | 100 µM | 100 µM | 73 µM | 66 µM | 44 µM |  |  | 
26 | O=S(=O)(/C=C/c1ccc(Br)cc1)Cc1ccc(Nc2ncnc3ccc(Br)cc23)cc1 | 3 µM | 10 µM | 5 µM | 2 µM | 34 µM | > 100 µM | > 100 µM | 11 µM | 20 µM |  |  |  |  |  | 
